Assay results: ChEMBL document CHEMBL1136613, “2-(3,4-Dihydro-1H-isoquinolin-2yl)-pyridines as a novel class of NR1/2B subtype selective NMDA receptor antagonists” (Bioorg Med Chem Lett, 2003)
“And” between values parts separate entries of the source, which are not always exact repeats. Identical values can stand only once.

What was measured:
[1] = biological target: Glutamate [NMDA] receptor
Description: Binding affinity against NMDA receptor by displacement of [3H]Ro-256981

[2] = biological target: T1, Adrenergic receptor alpha-1 (Homo sapiens, UniProt P35348+P25100+P35368); assay: Displacement of [3H]prazosin from Alpha-1 adrenergic receptor; type: protein assay
T1 sequence (P35348 whole entry): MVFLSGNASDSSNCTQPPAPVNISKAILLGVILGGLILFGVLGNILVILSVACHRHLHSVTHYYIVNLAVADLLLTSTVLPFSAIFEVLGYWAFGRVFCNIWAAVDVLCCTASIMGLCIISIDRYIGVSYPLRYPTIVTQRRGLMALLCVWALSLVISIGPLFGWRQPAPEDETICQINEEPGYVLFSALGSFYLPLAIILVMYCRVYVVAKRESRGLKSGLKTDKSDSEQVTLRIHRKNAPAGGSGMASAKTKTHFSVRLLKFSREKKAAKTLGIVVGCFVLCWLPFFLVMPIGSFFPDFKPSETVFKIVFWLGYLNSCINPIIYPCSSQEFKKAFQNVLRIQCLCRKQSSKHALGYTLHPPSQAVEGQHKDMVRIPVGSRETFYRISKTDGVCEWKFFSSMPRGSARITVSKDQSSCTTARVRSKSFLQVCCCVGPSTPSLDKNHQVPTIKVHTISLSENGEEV
T1 sequence (P25100 whole entry): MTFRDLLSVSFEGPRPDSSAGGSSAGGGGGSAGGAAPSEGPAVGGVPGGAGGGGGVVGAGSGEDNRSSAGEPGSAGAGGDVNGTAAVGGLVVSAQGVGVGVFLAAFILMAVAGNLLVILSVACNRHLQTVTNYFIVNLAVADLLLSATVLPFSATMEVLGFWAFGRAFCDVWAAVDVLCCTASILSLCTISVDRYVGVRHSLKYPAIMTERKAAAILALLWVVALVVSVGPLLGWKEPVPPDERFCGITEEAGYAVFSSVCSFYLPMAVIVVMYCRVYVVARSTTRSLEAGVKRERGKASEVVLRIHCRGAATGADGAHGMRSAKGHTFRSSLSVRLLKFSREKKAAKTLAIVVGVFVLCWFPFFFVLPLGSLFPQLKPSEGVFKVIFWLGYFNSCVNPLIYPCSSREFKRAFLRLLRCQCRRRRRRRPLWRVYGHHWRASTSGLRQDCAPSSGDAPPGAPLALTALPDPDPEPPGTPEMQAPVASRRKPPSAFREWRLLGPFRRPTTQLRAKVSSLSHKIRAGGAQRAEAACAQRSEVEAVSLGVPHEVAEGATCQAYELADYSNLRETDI
T1 sequence (P35368 whole entry): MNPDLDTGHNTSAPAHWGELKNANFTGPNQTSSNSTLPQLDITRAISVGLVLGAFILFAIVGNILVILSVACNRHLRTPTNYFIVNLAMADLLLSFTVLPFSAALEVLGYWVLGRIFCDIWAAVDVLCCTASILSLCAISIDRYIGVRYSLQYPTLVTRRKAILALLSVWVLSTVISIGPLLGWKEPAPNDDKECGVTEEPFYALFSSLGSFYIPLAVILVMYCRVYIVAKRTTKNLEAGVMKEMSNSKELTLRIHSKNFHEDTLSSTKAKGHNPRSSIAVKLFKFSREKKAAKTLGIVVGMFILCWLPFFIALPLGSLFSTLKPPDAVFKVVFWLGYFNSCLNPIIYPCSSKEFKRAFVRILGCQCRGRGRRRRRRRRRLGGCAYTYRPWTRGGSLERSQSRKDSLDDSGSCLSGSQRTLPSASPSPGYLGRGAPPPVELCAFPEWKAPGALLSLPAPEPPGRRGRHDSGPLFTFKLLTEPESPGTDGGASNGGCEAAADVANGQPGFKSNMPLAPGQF

Mus musculus [3] = assay: In vivo activity was measured in mice after ip administration using standard sound-induced seizures assay; type: functional
[4] = biological target: T2, Muscarinic acetylcholine receptor M1 (Homo sapiens, UniProt P11229)
T2 sequence (P11229 whole entry): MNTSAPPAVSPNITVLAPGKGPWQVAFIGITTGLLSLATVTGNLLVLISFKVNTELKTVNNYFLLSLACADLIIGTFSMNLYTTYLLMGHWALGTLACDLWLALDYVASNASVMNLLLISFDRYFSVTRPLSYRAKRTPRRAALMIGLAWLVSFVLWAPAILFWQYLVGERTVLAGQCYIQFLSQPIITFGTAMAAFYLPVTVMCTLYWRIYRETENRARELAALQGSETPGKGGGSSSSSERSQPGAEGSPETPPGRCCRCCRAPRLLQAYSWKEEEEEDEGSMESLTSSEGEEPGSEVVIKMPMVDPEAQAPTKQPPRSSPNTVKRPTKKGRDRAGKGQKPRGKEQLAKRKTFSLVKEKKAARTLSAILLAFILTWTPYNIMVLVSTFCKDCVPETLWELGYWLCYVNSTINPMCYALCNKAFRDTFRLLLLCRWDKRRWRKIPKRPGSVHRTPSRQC
Description: Displacement of [3H]pirenzepine from M1 receptor

Mus musculus [5] = assay: In vivo activity was measured i mice after ip administration using standard sound-induced seizures assay; type: functional

Description for physchem: Dissociation constant (pKa)

Row | SMILES | pKa (physchem) | Ki [1] | Ki [2] [nM] | Ki [4] [nM] | ED50 (Mus musculus [3]) [mg/kg] | ED50 (Mus musculus [5]) [mg/kg]
1 | Nc1ccnc(N2CCc3ccccc3C2)c1 | 8.5 | 3 nM | 1200 | 1900 | 7 | 
2 | Brc1ccc(N2CCc3ccccc3C2)nc1 | 3 | 7500 nM |  |  |  | 
3 | Cc1cc(NCCO)cc(N2CCc3ccccc3C2)n1 | 9.2 | 4 nM | 3300 | 3800 |  | 
4 | Nc1cccnc1N1CCc2ccccc2C1 | 5 | 380 nM |  |  |  | 
5 | Cc1cc(N)nc(N2CCc3ccccc3C2)c1 | 6.5 | 110 nM |  |  |  | 
6 | Nc1cc(CO)nc(N2CCc3ccccc3C2)c1 | 8.1 | 4 nM | 1700 | 1100 |  | 
7 | Cc1cnc(N2CCc3ccccc3C2)cc1N | 8.7 | 4 nM | 1000 | 870 |  | 
8 | OCCNc1cc(N2CCc3ccccc3C2)nc2ccccc12 |  | 3.5 nM |  |  |  | < 12
9 | Cc1ccnc(N2CCc3ccccc3C2)c1 | 6.6 | 380 nM |  |  |  | 
10 | OCCNc1ccnc(N2CCc3ccccc3C2)c1 | 8.9 | 2 nM | 2300 | 6100 | 13 | 
11 | C[C@@H]([C@@H](O)c1ccc(O)cc1)N1CCC(O)(c2ccccc2)CC1 [TRAXOPRODIL] |  |  |  |  | 13 | 

Now from value to compound, other results behind:

Row | pKa (physchem) | Ki [1] | Ki [2] [nM] | Ki [4] [nM] | SMILES | ED50 (Mus musculus [3]) [mg/kg] | ED50 (Mus musculus [5]) [mg/kg]
12 | 6.5 |  |  |  | Cc1ccc(N2CCc3ccccc3C2)nc1 |  | 
13 | 6 | 190 nM |  |  | Nc1cccc(N2CCc3ccccc3C2)n1 |  | 
14 | 6.5 | 380 nM |  |  | CC(=O)Nc1ccnc(N2CCc3ccccc3C2)c1 |  | 
15 | 2 | 15000 nM |  |  | Brc1cccc(N2CCc3ccccc3C2)n1 |  | 
16 | 9.4 | 9 nM | 730 | 510 | Nc1cc(N2CCc3ccccc3C2)nc2c1CCC2 |  | 
17 | 9 | 5 nM | 730 | 2600 | Cc1cc(N)cc(N2CCc3ccccc3C2)n1 |  | 
18 | 8.8 | 8 nM | 490 | 150 | CN(C)c1ccnc(N2CCc3ccccc3C2)c1 |  | 
19 | 5.8 | 1100 nM |  |  | Nc1ccc(N2CCc3ccccc3C2)nc1 |  | 
20 | 8.8 | 8 nM and 19 nM |  | 1200 | CNc1ccnc(N2CCc3ccccc3C2)c1 |  | 
21 |  | 6 nM |  |  | C[C@@H](CN1CCC(Cc2ccccc2)CC1)[C@@H](O)c1ccc(O)cc1 (single isomer, unassigned) | 13 | 
22 | 6.5 | 260 nM |  |  | CCOC(=O)C(=O)Nc1cc(C)nc(N2CCc3ccccc3C2)c1 |  | 
23 | 9 | 3 nM | 670 | 2500 | CCc1cc(N)cc(N2CCc3ccccc3C2)n1 |  | 
24 | 9 | 8 nM | 3200 | 6500 | Cc1cnc(N2CCc3ccccc3C2)cc1NCCO |  | 
25 | 8.6 | 150 nM |  |  | c1ccc(CNc2ccnc(N3CCc4ccccc4C3)c2)cc1 |  | 
26 | 6.4 | 750 nM |  |  | c1ccc(N2CCc3ccccc3C2)nc1 |  | 
